# Values quoted from earlier work, collected in patent US20250011247A1, “GYPSUM HARDENED PRODUCT” (KAO CORPORATION, priority 2022, published 2025).
# Conditions: 1-octanol/water; measured value if any, otherwise C log P calculated by C LOG P v 4.01
smiles,measurement,value
CCCCC=O [pentanal],log P,1.31
